Source: patent US20220273660A1, “MEK INHIBITOR FOR TREATMENT OF STROKE” (EDVINCE AB, priority 2019, published 2022)

Key:
[1] = test system: rat basilar arteries; assay: 48 h organ culture of basilar artery, VDCC independent contraction (Ca2+ curve after ET-1 precontraction with nimodipine); format: cell-based; conditions: 1 μM inhibitor, 48 h OC, 10^-7 M nimodipine
Experimental: Rats were sedated with O2/CO2 (30/70%) and sacrificed by decapitation. Brains were gently removed and chilled in a cold oxygenated buffer solution of the following composition: 119 mM NaCl, 4.6 mM KCl, 1.5 mM CaCl2, 1.2 mM MgCl2, 1.2 mM NaH2PO4, 15 mM NaHCO3 and 5.5 mM Glucose; pH 7.4. The basilar artery (BA) was carefully dissected from the brain in a physiological buffer solution followed by either OC (naïve animals) or directly mounted in a wire myograph (arteries from rats which has undergone surgical procedures). Segments were incubated for 48 hours at 37° C. in humidified 5% CO2/O2 in DMEM supplemented with streptomycin and penicillin with inhibitors or vehicle (DMSO). Culture media was changed after 24 hours.
The segments were equilibrated in physiological buffer aerated with 95% O2/5% CO2, pH of 7.4, temperature set at 37° C. and the wires were separated for isometric pretension at 2 Nm^−1. The arterial segments were exposed two or three times with 60 mM K^+, by exchanging the buffer with a 60 mM K^+ buffer solution. To maintain equal osmolarity, a proportional amount of Na^+ had been removed from the buffer. An absolute cut-off was set at 2.0 mN K^+max for inclusion of arterial segments from rats that underwent the surgical procedure. Endothelium function was evaluated with the addition of 5-HT (3.10^−7 M) followed by carbachol (10^−5 M). […]

[2] = test system: rat subarachnoid haemorrhage model; assay: Rat SAH model, intrathecal treatment, myograph of basilar arteries; format: in vivo
Experimental: For contractility measurements, both incubated BAs (ex vivo) and BAs after surgical procedure (in vivo) were cut into segments and mounted on a pair of metal wires (40 μm) in a myograph bath. The arteries from OC were mounted the same way after 48 hours in media. One wire was attached to a micro-meter screw which allows for fine adjustments of the distance between the wires, controlling the vascular tone.
The arterial segments were exposed two or three times with 60 mM K^+, by exchanging the buffer with a 60 mM K^+ buffer solution. To maintain equal osmolarity, a proportional amount of Na^+ had been removed from the buffer. An absolute cut-off was set at 2.0 mN K^+max for inclusion of arterial segments from rats that underwent the surgical procedure. Endothelium function was evaluated with the addition of 5-HT (3.10^−7 M) followed by carbachol (10^−5 M). For arteries from the OC the protocol was as followed: first a cumulative concentration-response curve to sarafotoxin 6C (S6c, 10^−14-10^−7 M), followed by a concentration-response curve to endothelin-1 (ET-1, 10^−14-10^−7 M). At peak ET-1 (10^−7 M), the buffer was changed to a Ca^2+-free buffer containing 10^−7 M ET-1 and nimodipine (L-type of voltage dependent Ca^2+ channel entry blocker, 10^−7 M). […] When vasodilation was investigated arteries was precontracted with U46619 (1.10^−7-3.10^−7 M) or K^+ (41 mM) and cumulative concentration-response curves was performed by adding calcitonin gene-related peptide (CGRP, 10^−12-10^−7 M), carbachol (10^−10-10^−5 M) or SNP (10^−11-10^−4 M).
If there was only one curve above the cut-off, the concentration-response curve to ET-1 was prioritized. Segments with the highest K^+ response were generally allocated to the concentration-response curve to ET-1. […] The Ca^2+ free buffer solution had similar composition as above, but 1.5 mM CaCl2 was exchanged with 0.03 mM EDTA.
Contractile responses of each segment were adjusted according to the length of the artery and are expressed as mN/mm (Nm^−1). […] To compare ET-1 sensitivity, arteries were normalized to the percentage of the individual vessel ET-1max. When the artery reached maximum contraction before the last concentration was added, the curves were constrained to the max contraction. The relative log IC50/log EC50 is the concentration corresponding to a response midway between the estimates of the lower and upper plateaus. The Emax is the maximal contraction in the concentration response curve and ET-1max is the maximal contraction to ET-1. All quantitative data is presented as mean±standard error of the mean (SEM), unless otherwise stated.
Rats were anesthetized and prepared for cisternal infusion of autologous blood, which simulates a SAH. Sham-operated rats went through the same procedure, omitting the intracisternal blood injection of 300 μL. At the end of the procedure, a PinPort (PNP3F22, Instech, US) was placed at the end of the ICP catheter to provide access for intrathecal (i.t.) injectable treatments by a PinPort injector (PNP-3M, Instech, US). 24 hours post-surgery, the rats received s.c. injections of Carprofen (Norodyl, 5 mg/kg) (Scanvet, Denmark) for analgesia.
The intrathecal (i.t.) treatment volumes were estimated for a cerebrospinal fluid (CSF) volume of approximately 90 μL (21) and the total dose was administered as three treatments (4 hours, 10 hours and 24 hours) through the PinPort in the ICP catheter placed in the cisterna magna during the surgical procedure. The first and third injections were given under fixation of the rat. […] Animals were given 2.5 ml isotonic saline s.c. to avoid dehydration, immediately after surgery and in conjunction with the 10 hours and 24 hours treatments.

Q: Which VDCC independent contraction [1] does the source give for `CC(=O)Nc1cccc(-n2c(=O)n(C3CC3)c(=O)c3c(Nc4ccc(I)cc4F)n(C)c(=O)c(C)c32)c1` [trametinib] here?
A: The VDCC independent contraction was “significantly prevented”.

Q: And the “K+ responses compared to i.t. vehicle” value ([2]; SAH + i.t. treatment)?
A: The value was “higher K^+ responses”.

Q: And the “contraction at low ET-1 concentrations (10^-12.5-10^-11.0 M), ET-1max normalised, vs SAH+vehicle” value ([2]; SAH + i.t. treatment)?
A: Its value is “significantly reduced”.

Q: And the “nimodipine insensitive ET-1max contraction” value ([2]; SAH + i.t. treatment, Ca2+ curve, 10^-7 M nimodipine)?
A: The value was 1.8±0.5 Nm^−1.

Q: What about the “contractile response of BAs to 60 mM K+” value ([2]; SAH + i.t. treatment, all BAs incl. below cut-off) of the same molecule?
A: Its value is 5.00±0.29 Nm^−1.

Q: And the endothelium function ([2]; animals treated in vivo i.t. after SAH)?
A: The endothelium function was “No significant changes”.
